Experimental data published in US6555125B2, “Lesion and ulcer medication” (priority 1999, dated 2003).

How the values were obtained:
[1] = Antimicrobial/bacteriostatic effect of zinc oxide at low levels; conditions: even at low levels
Streptococcus mutans = conditions: especially with respect to Streptococcus mutans; cited from earlier work

Structure (SMILES): [O]=[Zn] [Zinc oxide, Zinc Oxide]
- antimicrobial/bacteriostatic effect [1]: effective antimicrobial/bacteriostatic effect
- antimicrobial properties (Streptococcus mutans): antimicrobial properties
